Source: PMC10401651, “Characterization of Uranyl (UO2^2+) Ion Binding to Amyloid Beta (Aβ) Peptides: Effects on Aβ Structure and Aggregation” (ACS Chemical Neuroscience, 2023)

Biological target: T1, Aβ42 oligomers (Homo sapiens, UniProt P05067)
T1 construct: Synthetic lyophilized wt Aβ (1–42) peptides, abbreviated as Aβ42; purchased JPT Peptide Technologies (Germany); host or cells: synthetic peptide
Test: FTIR spectroscopy of SDS-stabilized Aβ42 oligomer structure
Description: The secondary structures of Aβ42 oligomers formed with different SDS and uranyl concentrations were studied with FTIR spectroscopy, where the amide I region (1700–1600 cm^–1) is very sensitive to changes in the protein backbone conformation, including differences in β-sheet structures.[133]−[135] […] This split pattern of IR bands in the amide I region is typical for anti-parallel β-sheet structures.[136]−[138]
Treatment of Aβ42 peptides with low concentrations (≤7 mM) of SDS, i.e., below the critical micelle concentration for SDS, which is 8.2 mM in water at 25 °C,[152] leads to the formation of stable and homogeneous Aβ42 oligomers of certain sizes and conformations.[131],[132],[153] […] The absorbance for each fraction at 280 nm was measured with a NanoDrop instrument (Eppendorf, Germany), and peptide concentrations were determined using a molar extinction coefficient of 1280 M^–1 cm^–1 for the single Tyr in Aβ42.[155] […]
FTIR spectra of the SDS-stabilized Aβ42 oligomers (prepared as described in Section 5.2) were recorded in transmission mode on a Tensor 37 FTIR spectrometer (Bruker Optics, Germany) equipped with a sample shutter and a liquid nitrogen-cooled MCT detector. […] FTIR spectra were recorded at room temperature in the 1900–800 cm^–1 range, with 300 scans for both background and sample spectra, using a 6 mm aperture and at a resolution of 2 cm^–1. […]

T1 sequence (P05067 672-713 limits assumed): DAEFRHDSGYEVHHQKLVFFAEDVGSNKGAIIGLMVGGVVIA

What does the source list for `CC(=O)[O-].CC(=O)[O-].[O]=[U+2]=[O]` [uranyl ions, uranyl acetate]?
β-sheet main band position (amide I, FTIR) (AβO0.05%SDS oligomers in PBS, 1 mM uranyl acetate (1628.3 without)): 1627.8 cm^–1; β-sheet main band position (amide I, FTIR) (AβO0.2%SDS oligomers, 0.01, 0.1, and 1 mM uranyl acetate (1629.9 without)): 1629.8 cm^–1
